Like-named read-outs stand apart in the source and are kept apart here.
Tests used:
[1] = system: THP-1-derived macrophages; experiment: Cytotoxicity assay (MTT) on THP-1-derived macrophages; type: cell-based, Human; conditions: cytotoxic concentration for THP1 cells
Procedure: Human leukemia cell line THP-1 (ATCC TIB202) cells were cultured in RPMI-1640 medium supplemented with 10% heat-inactivated fetal bovine serum (FBS), 2 mM L-glutamine, 100 IU/mL penicillin/streptomycin, and 20 mM HEPES. The cell line was maintained in a humidified incubator at 37 °C with 5% CO2. Subcultures were performed every 3 days in 20 mL of media at a concentration of 2 × 10^5 cells/mL in a T75 flask. All cell culture reagents were purchased from Lonza Bioscience (Morrisville, NC).
The cytotoxicity of the compounds on THP-1-derived macrophages was assessed using the colorimetric MTT assay (3-(4,5-dimethylthiazol-2-yl)-2,5-diphenyl tetrazolium bromide) as described elsewhere. THP-1 cells were suspended in RPMI complete medium at a density of 1 × 10^6 cells/mL, and 100 μL/well was seeded in a 96-well plate. The cells were differentiated into macrophages by adding 40 ng/mL of phorbol-myristate 13-acetate (PMA, Sigma, Saint Louis, MI, USA) for 24 h, followed by replacement with fresh medium for another 24 h. Subsequently, the cells were incubated with 100 μL of compounds, ranging from 100 to 12.5 μM, diluted in RPMI complete medium. Each condition was tested in triplicate. After 72 h of incubation at 37 °C with 5% CO2, the medium was removed, and 200 μL of 0.5 mg/mL MTT solution diluted in RPMI was added. The plates were incubated for an additional 4 h, after which 160 μL of the media was removed and replaced with 160 μL of 2-propanol. Absorbance was read at 570 nm using a Synergy 2 Multi-Mode Reader (Biotek, Winooski, VT, USA). Cytotoxicity was evaluated by presenting the CC50 (the concentration of the drug that reduces cell viability by 50%) interval or by determining the CC50 value through nonlinear regression analysis using GraphPad Prism version 8.1.1 for Windows (GraphPad Software, San Diego, CA, USA). Results represent the average of at least three independent experiments.

TbPTR1 [2] = target: T1, TbPTR1 (Trypanosoma brucei brucei, UniProt O76290); experiment: TbPTR1 kinetic direct enzyme assay (NADPH consumption); type: biochemical; conditions: direct method of activity measurement, duplicate
T1 sequence (O76290 1-268): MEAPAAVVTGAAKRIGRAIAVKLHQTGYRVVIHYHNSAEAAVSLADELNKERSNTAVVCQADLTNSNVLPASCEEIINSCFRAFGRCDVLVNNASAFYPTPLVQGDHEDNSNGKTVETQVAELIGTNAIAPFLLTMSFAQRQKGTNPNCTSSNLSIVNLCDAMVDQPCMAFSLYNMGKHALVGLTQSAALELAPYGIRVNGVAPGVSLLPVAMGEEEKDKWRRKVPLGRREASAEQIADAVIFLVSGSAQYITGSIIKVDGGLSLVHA
Procedure: A direct kinetic assay was carried out to measure NADPH consumption over time using a Jasco V730 double-beam spectrophotometer. The assay was conducted as reported in ref . Thawed protein was incubated in 40 mM citrate buffer (pH 3.7) at a final concentration of 30 nM, along with the endogenous substrate at 27 μM. The reaction was carried out in a Kartell semimicro disposable polystyrene plastic cuvette (Kartell LABWARE, Milan, Italy). […] The maximum DMSO concentration was 2% in the assay solution. Each compound was tested in duplicate with a control assay without the inhibitor. The experiment was conducted 3 times. The reaction was initiated by adding NADP(H) to a final concentration of 134 μM in the cuvette, and the change in absorbance (ΔOD/min) at λ = 340 nm was monitored over 180 s at 25 °C with 27 μM. Six different concentrations were analyzed and fitted to a three-parameter logistical (3PL) model. A 95% confidence interval (CI) was used to calculate the standard error for each curve fitting, and a Student’s t test was performed for each duplicate with a significance threshold of p ≤ 0.05. Data fitting and statistical analysis were carried out using the GraphPad Prism Suite (2021).

[3] = system: Trypanosoma brucei brucei L427 wild-type (WT) bloodstream forms; experiment: Activity against T. brucei (resazurin-based assay); type: cell-based; conditions: at 10 μM
Procedure: The parasites were grown in 5 mL T25 ventilated flasks containing complete HMI-9 medium. The medium was supplemented with 10% heat-inactivated FBS and 100 IU/mL penicillin/streptomycin. To maintain the cultures, subpassages were performed every 2 days at a concentration of 1 × 10^4 cells/mL.
The efficacy of the compounds against Trypanosoma brucei brucei L427 wild-type (WT) bloodstream forms was assessed using a resazurin-based assay as described elsewhere. T. b. brucei L427 bloodstream forms were prepared at a cell density of 5 × 10^3 cells/mL in supplemented complete medium. Serial dilutions of the test compounds were prepared in a final volume of 100 μL, and 100 μL of the parasite suspension was added to each well containing the compound dilutions, resulting in a total volume of 200 μL per well. A dose–response curve for pentamidine was included as a quality control in each assay, and each condition was tested in duplicate. The plates were incubated for 72 h under the specified conditions for the parasite. After the incubation period, 20 μL of a 0.5 mM resazurin solution was added to each well, and the plates were incubated for an additional 4 h under the same conditions. Fluorescence was measured at an excitation wavelength of 544 nm and an emission wavelength of 590 nm using a Synergy 2 Multi-Mode Reader (Biotek, Winooski, VT, USA). The results were expressed as the percentage of parasite growth inhibition compared to the control (untreated parasites) and represented the average of at least three independent experiments.

TbPTR1 [4] = target: T1, TbPTR1; parameters: method as in PMID 30908048; conditions: cited from earlier work; for IC50: reference compounds, SD within ± 10% ref 22; for TbPTR1 % enzyme inhibition: at 50 μM ref 22
[5] = system: Trypanosoma brucei brucei L427 wild-type (WT) bloodstream forms; parameters: method as in PMID 30908048; conditions: cited from earlier work; for T. brucei % cell growth inhibition: at 10 μM ref 22; for EC50: read-out: T. brucei EC50
[6] = system: THP-1-derived macrophages; parameters: method as in PMID 30908048; conditions: cytotoxic concentration for THP1 cells ref 22; cited from earlier work
LmPTR1 = target: T2, LmPTR1 (Leishmania major, UniProt Q01782); parameters: method as in PMID 30908048; conditions: at 50 μM ref 22; cited from earlier work
T2 sequence (Q01782 1-288): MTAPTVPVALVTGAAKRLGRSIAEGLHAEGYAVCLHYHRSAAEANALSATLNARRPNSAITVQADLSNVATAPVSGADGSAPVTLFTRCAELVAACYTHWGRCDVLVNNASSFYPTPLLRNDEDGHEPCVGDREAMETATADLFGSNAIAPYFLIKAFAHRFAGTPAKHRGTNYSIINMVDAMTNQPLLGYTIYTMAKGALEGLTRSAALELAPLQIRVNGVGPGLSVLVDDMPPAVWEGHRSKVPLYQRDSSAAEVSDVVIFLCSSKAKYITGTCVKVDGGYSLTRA

[7] = system: L. infantum intracellular amastigotes; parameters: method as in PMID 30908048; conditions: at 10 μM; intracellular amastigotes ref 22; cited from earlier work
[8] = target: the molecule itself; experiment: crystal structure; hanging-drop vapour diffusion, crystals soaked with inhibitors; space group P2(1), asymmetric unit holds a functional TbPTR1 tetramer; ternary complexes with NADP(H) and 1a, 2b, 2c, 2d or 2e

2-amino-N-(3-(trifluoromethyl)phenethyl)benzo[d]thiazole-6-carboxamide [Compound 2g]
CC50 [1]: > 100 µM
IC50 (TbPTR1 [2]): 7 µM
T. brucei % cell growth inhibition [3]: 31±7%

2-amino-N-(4-(trifluoromethyl)phenethyl)benzo[d]thiazole-6-carboxamide [Compound 2f]
CC50 [1]: > 100 µM
IC50 (TbPTR1 [2]): 5.7 µM

Nc1nc2ccc(SCc3ccc(Cl)c(Cl)c3)cc2s1 [III]
IC50 (TbPTR1 [4]): 0.9 µM
T. brucei % cell growth inhibition [5]: 46±1%

Nc1nc2ccc(OCc3ccc(Cl)c(Cl)c3)cc2s1 [II]
CC50 [6]: > 100 µM
IC50 (TbPTR1 [4]): 3.4 µM
T. brucei % cell growth inhibition [5]: 42±11%

Nc1nc2ccc(S(=O)(=O)Cc3ccc(Cl)c(Cl)c3)cc2s1 [IV]
LmPTR1 % enzyme inhibition (LmPTR1): 26.9±1.8%
TbPTR1 % enzyme inhibition (TbPTR1 [4]): 16.7±8.4%
T. brucei % cell growth inhibition [5]: 37±11%
L. infantum % cell growth inhibition [7]: 21±5%

Nc1nc2c(O)cc(C(=O)NCc3ccc(Cl)c(Cl)c3)cc2s1 [VII]
LmPTR1 % enzyme inhibition (LmPTR1): 8.7±0.6%
TbPTR1 % enzyme inhibition (TbPTR1 [4]): 11.8±4.6%
EC50 [5]: 5.9 µM
L. infantum % cell growth inhibition [7]: 24±15%

COc1ccc(CN(Cc2ccc(Cl)c(Cl)c2)C(=O)c2ccc3nc(N)sc3c2)cc1OC [VI]
IC50 (TbPTR1 [4]): 15.9 µM
EC50 [5]: 9.7 µM

Nc1nc2ccc(C(=O)NCc3ccc(Cl)c(Cl)c3)cc2s1 [V]
IC50 (TbPTR1 [4]): 5.4 µM

B1: Trypanosoma brucei pteridine reductase 1 (enzyme)
chain: MEAPAAVVTGAAKRIGRAIAVKLHQTGYRVVIHYHNSAEAAVSLADELNKERSNTAVVCQADLTNSNVLPASCEEIINSCFRAFGRCDVLVNNASAFYPTPLVQGDHEDNSNGKTVETQVAELIGTNAIAPFLLTMSFAQRQKGTNPNCTSSNLSIVNLCDAMVDQPCMAFSLYNMGKHALVGLTQSAALELAPYGIRVNGVAPGVSLLPVAMGEEEKDKWRRKVPLGRREASAEQIADAVIFLVSGSAQYITGSIIKVDGGLSLVHA
modifications: Cys168 oxidized to S-oxycysteine (Csx168) in the crystal structures
notes: Pteridine reductase 1 (PTR1) of Trypanosoma brucei; Ala268 is called the C-terminus; also called TbPTR1; PTR1; source: E. coli BL21(DE3), purified (IMAC on HisTrap FF, SEC on Superdex 200)
stoichiometry N [8]: 4

Source: paper PMC12516686, “Design of 2‑Aminobenzothiazole Derivatives Targeting Trypanosomatid PTR1 by a Multidisciplinary Fragment Hybridization Approach” (Journal of Medicinal Chemistry, 2025)
